These results are taken from patent US8445680B2, “Tetrahydrothieno pyridines” (Merck Sharp & Dohme Corp., priority 2008, dated 2013).

The target in the assay is T1, FLAG-tagged full length PHD2 (Homo sapiens, UniProt Q9GZT9).
T1 construct: FLAG-tagged full length PHD2; FLAG; made in house; host or cells: baculovirus-infected Sf9 cells
The experiment in a line: PHD2 inhibition assay (time resolved fluorescence, HIF-1α peptide hydroxylation, VHL detection). The assay is classed as biochemical. The following applies: 0.2 μM 2-oxoglutarate, 0.5 μM HIF-1α peptide, 2 hr at room temperature; read-out: PHD2 Activity (PHD2 binding activity expressed as IC50). On the procedure:
To each well of a 96-well plate was added 1 μL of test compound in DMSO and 20 μl of assay buffer (50 mM Tris pH 7.4/0.01% Tween-20/0.1 mg/ml bovine serum albumin/10 μM ferrous sulfate/1 mM sodium ascorbate/20 μg/ml catalase) containing 0.15 μg/ml FLAG-tagged full length PHD2 expressed in and purified from baculovirus-infected Sf9 cells. After a 30 min preincubation at room temperature, the enzymatic reactions were initiated by the addition of 4 μL of substrates (final concentrations of 0.2 μM 2-oxoglutarate and 0.5 μM HIF-1α peptide biotinyl-[…]).

Structures can show the parent of a compound that is named as a salt.

As a reminder, the IC50 is the concentration that gives 50% inhibition.

T1 sequence (Q9GZT9 whole entry): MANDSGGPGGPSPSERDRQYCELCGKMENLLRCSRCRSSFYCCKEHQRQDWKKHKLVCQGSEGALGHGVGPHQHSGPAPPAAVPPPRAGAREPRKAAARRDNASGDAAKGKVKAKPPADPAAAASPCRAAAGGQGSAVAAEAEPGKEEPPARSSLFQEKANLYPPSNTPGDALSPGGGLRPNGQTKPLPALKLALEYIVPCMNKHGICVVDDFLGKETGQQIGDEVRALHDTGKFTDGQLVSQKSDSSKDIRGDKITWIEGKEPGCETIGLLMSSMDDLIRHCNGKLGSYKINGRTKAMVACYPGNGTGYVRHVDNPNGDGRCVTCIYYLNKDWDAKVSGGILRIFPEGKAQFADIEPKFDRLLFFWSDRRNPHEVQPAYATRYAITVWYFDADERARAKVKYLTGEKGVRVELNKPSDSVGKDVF

Regarding `CSc1ccccc1-c1cnc(Cn2c3c(c(O)c(C(=O)NCC(=O)O)c2=O)CSC3)cn1` [Example 55, N-{[4-hydroxy-1-({5-[2-(methylthio)phenyl]pyrazin-2-yl}methyl)-2-oxo-1,2,5,7-tetrahydrothieno[3,4-b]pyridin-3-yl]carbonyl}glycine], the IC50 is no more than 10 nM. The result for `O=C(O)CNC(=O)c1c(O)c2c(n(Cc3ccc(Cl)c(C(F)(F)F)c3)c1=O)CSC2` [Example 18, N-({1-[4-chloro-3-(trifluoromethyl)benzyl]-4-hydroxy-2-oxo-1,2,5,7-tetrahydrothieno[3,4-b]pyridin-3-yl}carbonyl)glycine] reads no more than 10 nM. The result for `O=C(O)CNC(=O)c1c(O)c2c(n(Cc3ccc(Oc4ccc(F)cc4)cc3)c1=O)CSC2` [Example 32, N-({l-[4-(4-fluorophenoxy)benzyl]-4-hydroxy-2-oxo-1,2,5,7-tetrahydrothieno[3,4-b]pyridin-3-yl}carbonyl)glycine] reads no more than 10 nM; that for `O=C(O)CNC(=O)c1c(O)c2c(n(Cc3nc4ccccc4s3)c1=O)CSC2` [Example 11, N-{[1-(1,3-benzothiazol-2-ylmethyl)-4-hydroxy-2-oxo-1,2,5,7-tetrahydrothieno[3,4-b]pyridin-3-yl]carbonyl]glycine], no more than 10 nM. Then `O=C(O)CNC(=O)c1c(O)c2c(n(Cc3ccc(-c4ccc(C(F)(F)F)cc4)nc3)c1=O)CSC2` [Example 44, N-{[4-hydroxy-2-oxo-1-({6-[4-(trifluoromethyl)phenyl]pyridinium-3-yl}methyl)-1,2,5,7-tetrahydrothieno[3,4-b]pyridin-3-yl]caxbonyl}glycine trifluoroacetate], with no more than 10 nM; and `O=C(O)CNC(=O)c1c(O)c2c(n(Cc3ccc(-c4cccs4)cc3)c1=O)CSC2` [Example 35, N-({4-hydroxy-2-oxo-1-[4-(2-thienyl)benzyl]-1,2,5,7-tetrahydrothieno[3,4-b]pyridin-3-yl}carbonyl)glycine], with no more than 10 nM; and `O=C(O)CNC(=O)c1c(O)c2c(n(Cc3ccc(-c4ccccc4)cc3)c1=O)CSC2` [Example 29, N-{[1-(biphenyl-4-ylmethyl)-4-hydroxy-2-oxo-1,2,5,7-tetrahydrothieno[3,4-b]pyridin-3-yl]carbonyl}glycine], with no more than 10 nM. Turning to `O=C(O)CNC(=O)c1c(O)c2c(n(-c3ccc(-c4ccc(OC(F)(F)F)cc4)cc3)c1=O)CSC2` [Example 38, N-({4-hydroxy-2-oxo-1-[4′-(trifluoromethoxy)biphenyl-4-yl]-1,2,5,7-tetrahydrothieno[3,4-b]pyridin-3-yl}carbonyl)glycine], the IC50 was 10 to 100 nM. The result for `O=C(O)CNC(=O)c1c(O)c2c(n(Cc3ccc(C(F)(F)F)cc3)c1=O)CSC2` [Example 4, N-({4-hydroxy-2-oxo-1-[4-(trifluoromethyl)benzyl]-1,2,5,7-tetrahydrothieno[3,4-b]pyridin-3-yl]carbonyl)glycine] reads no more than 10 nM; that for `Cc1ccc(-c2ccc(Cn3c4c(c(O)c(C(=O)NCC(=O)O)c3=O)C[S+]([O-])C4)cc2)cc1` (stereo not drawn) [Example 59, N-({4-hydroxy-1-[(4′-methylbiphenyl-4-yl)methyl]-6-oxido-2-oxo-1,2,5,7-tetrahydrothieno[3,4-b]pyridin-3-yl}carbonyl)glycine], no more than 10 nM. Then `O=C(O)CNC(=O)c1c(O)c2c(n(Cc3ccc(-c4ccn[nH]4)cc3)c1=O)CSC2` [Example 27, N-({4-hydroxy-2-oxo-1-[4-(1H-pyrazol-5-yl)benzyl]-1,2,5,7-tetrahydrothieno[3,4-b]pyridin-3-yl}carbonyl)glycine], with no more than 10 nM.

For `CC(=O)c1ccc(-c2ccc(Cn3c4c(c(O)c(C(=O)NCC(=O)O)c3=O)CSC4)cc2)cc1` [Example 28, N-({1-[(4′-acetylbiphenyl-4-yl)methyl]-4-hydroxy-2-oxo-1,2,5,7-tetrahydrothieno[3,4-b]pyridin-3-yl}carbonyl)glycine], the concentration for half-maximal inhibition (IC50) is no more than 10 nM. In the case of `O=C(O)CNC(=O)c1c(O)c2c(n(Cc3cc4ccccc4s3)c1=O)CSC2` [Example 22, N-{[1-(1-benzothien-2-ylmethyl)-4-hydroxy-2-oxo-1,2,5,7-tetrahydrothieno[3,4-b]pyridin-3-yl]carbonyl}glycine], the IC50 was no more than 10 nM. The result for `O=C(O)CNC(=O)c1c(O)c2c(n(Cc3cnc(-c4ccccc4F)cn3)c1=O)CSC2` [Example 26, N-[(1-{[5-(2-fluorophenyl)pyrazin-2-yl]methyl}-4-hydroxy-2-oxo-1,2,5,7-tetrahydrothieno[3,4-b]pyridin-3-yl)carbonyl]glycine] reads no more than 10 nM; that for `O=C(O)CNC(=O)c1c(O)c2c(n(Cc3ccc(C(F)(F)F)nc3)c1=O)CSC2` [Example 5, N-[(4-hydroxy-2-oxo-1-{[6-(trifluoromethyl)pyridin-3-yl]methyl]-1,2,5,7-tetrahydrothieno[3,4-b]pyridin-3-yl)carbonyl]glycine], no more than 10 nM; that for `CS(=O)(=O)c1ccc(Cn2c3c(c(O)c(C(=O)NCC(=O)O)c2=O)CSC3)cc1` [Example 6, N-({4-hydroxy-1-[4-(methylsulfonyl)benzyl]-2-oxo-1,2,5,7-tetrahydrothieno[3,4-d]pyridin-3-yl]carbonyl)glycine], no more than 10 nM. Then `Cc1ccc(-c2ccc(Cn3c4c(c(O)c(C(=O)NCC(=O)O)c3=O)CS(=O)(=O)C4)cc2)cc1` [Example 58, N-({4-hydroxy-1-[(4′-methylbiphenyl-4-yl)methyl]-6,6-dioxido-2-oxo-1,2,5,7-tetrahydrothieno[3,4-b]pyridin-3-yl}carbonyl)glycine], with no more than 10 nM. The result for `O=C(O)CNC(=O)c1c(O)c2c(n(Cc3coc(-c4ccccc4)n3)c1=O)CSC2` [Example 21, N-({4-hydroxy-2-oxo-1-[(2-phenyl-1,3-oxazol-4-yl)methyl]-1,2,5,7-tetrahydrothieno[3,4-b]pyridin-3-yl}carbonyl)glycine] reads no more than 10 nM; that for `O=C(O)CNC(=O)c1c(O)c2c(n(Cc3ccc(Br)cc3)c1=O)CSC2` [Example 2], no more than 10 nM. Consider `CC(C)c1ccc(Cn2c3c(c(O)c(C(=O)NCC(=O)O)c2=O)CS(=O)(=O)C3)cc1` [Example 61, N-{[4-hydroxy-1-(4-isopropylbenzyl)-6,6-dioxido-2-oxo-1,2,5,7-tetrahydrothieno[3,4-b]pyridin-3-yl]carbonyl}glycine], for which the IC50 is no more than 10 nM.

`O=C(O)CNC(=O)c1c(O)c2c(n(Cc3ccc(Oc4ccc(Cl)cc4)cc3)c1=O)CSC2` [Example 33, N-({1-[4-(4-chlorophenoxy)benzyl]-4-hydroxy-2-oxo-1,2,5,7-tetrahydrothieno[3,4-b]pyridin-3-yl}carbonyl)glycine]: the IC50 is no more than 10 nM. Turning to `O=C(O)CNC(=O)c1c(O)c2c(n(Cc3cnc(-c4ccccc4Cl)cn3)c1=O)CSC2` [Example 53, N-[(1-{[-5-(2-chlorophenyl)pyrazin-2-yl]methyl}-4-hydroxy-2-oxo-1,2,5,7-tetrahydrothieno[3,4-b]pyridin-3-yl)carbonyl]glycine], the IC50 is no more than 10 nM.

Regarding `O=C(O)CNC(=O)c1c(O)c2c(n(Cc3ccc(Cl)cc3)c1=O)CS(=O)(=O)C2` [Example 60, N-{[1-(4-chlorobenzyl)-4-hydroxy-6,6-dioxido-2-oxo-1,2,5,7-tetrahydrothieno[3,4-b]pyridin-3-yl]carbonyl}glycine], the IC50 was no more than 10 nM. Regarding `Cc1cc(Cl)ccc1Cn1c2c(c(O)c(C(=O)NCC(=O)O)c1=O)CSC2` [Example 15, N-{[1-(4-chloro-2-methylbenzyl)-4-hydroxy-2-oxo-1,2,5,7-tetrahydrothieno[3,4-b]pyridin-3-yl]carbonyl}glycine], the IC50 was no more than 10 nM. `O=C(O)CNC(=O)c1c(O)c2c(n(Cc3ccc(-c4cccc(OC(F)(F)F)c4)nc3)c1=O)CSC2` [Example 49, N-{[4-hydroxy-2-oxo-1-({6-[3-(trifluoromethoxy)phenyl]pyridinium-3-yl}methyl)-1,2,5,7-tetrahydrothieno[3,4-b]pyridin-3-yl]carbonyl}glycine trifluoroacetate]: the IC50 was no more than 10 nM.

On to `Cc1ccccc1-c1ccc(Cn2c3c(c(O)c(C(=O)NCC(=O)O)c2=O)CSC3)cn1` [Example 48, N-[(4-hydroxy-1-{[6-(2-methylphenyl)pyridinium-3-yl-methyl}-2-oxo-1,2,5,7-tetrahydrothieno[3,4-b]pyridin-3-yl)carbonyl]glycine trifluoroacetate], for which the IC50 is no more than 10 nM.

For `O=C(O)CNC(=O)c1c(O)c2c(n(Cc3ccc(-c4ccc(OC(F)(F)F)cc4)cc3)c1=O)CSC2` [Example 36, N-[(4-hydroxy-2-oxo-1-{[4′-(trifluoromethoxy)biphenyl-4-yl]methyl}-1,2,5,7-tetrahydrothieno[3,4-b]pyridin-3-yl)carbonyl]glycine], the half-inhibitory concentration (IC50) was no more than 10 nM. Then `O=C(O)CNC(=O)c1c(O)c2c(n(Cc3ccc(-c4ccccc4F)nc3)c1=O)CSC2` [Example 43, N-[(l-{[6-(2-fluorophenyl)pyridin-3-yl]methyl}-4-hydroxy-2-oxo-1,2,5,7-tetrahydrothieno[3,4-b]pyridin-3-yl)carbonyl]glycine], with no more than 10 nM. Then `O=C(O)CNC(=O)c1c(O)c2c(n(Cc3cccc(Cl)c3)c1=O)CSC2` [Example 14, N-{[1-(3-chlorobenzyl)-4-hydroxy-2-oxo-1,2,5,7-tetrahydrothieno[3,4-b]pyridin-3-yl]carbonyl}glycine], with no more than 10 nM. In the case of `O=C(O)CNC(=O)c1c(O)c2c(n(Cc3ccc(-c4cc(F)ccc4F)nc3)c1=O)CSC2` [Example 51, N-[(l-{[6-(2,5-difluorophenyl)pyridinium-3-yl]methyl}-4-hydroxy-2-oxo-1,2,5,7-tetrahydrothieno[3,4-6]pyridin-3-yl)carbonyl]glycine trifluoroacetate], the IC50 was no more than 10 nM.
